Where “and” joins values, the source holds several entries; their conditions need not be identical. Identical values can stand only once. Entries after “also recorded” stand apart in the source; their conditions may differ.
How the values were obtained:
HLH-30 = experiment: HLH-30::GFP nuclear localization in nematodes (fluorescent microscopy); type: in vivo, C. elegans
Method: The nematode C. elegans is an art-recognized system to identify genetic and pharmacological modifiers of various cellular processes. As such, an unbiased genome-wide RNAi screen for genetic modifiers of the activity of HLH-30/TFEB was performed (FIG. 1B). Specifically, enhancers of HLH-30 nuclear localization were searched for by following the distribution of HLH-30 fused to GFP.
HLH-30-GFP-expressing nematodes were fed HT115 E. coli bacteria transformed with a plasmid containing the L4440 backbone and a portion of the cDNA sequence complementary to the coding sequence of the xpo-1 gene. Nuclear enrichment was measured by fluorescent microscopy after animals were treated from eggs to day 1 of adulthood. The RNAi was based on the cosmid sequence ZK742.1 of the C. elegans genome. The sequence of the RNAi used is:
Fluorescent microscopy imaging: Transgenic worms were mounted on a 2% agarose pad with 0.1% sodium azide and imaged using a Zeiss Discovery V20 fluorescent microscope.
Animals were fed OP50 E. coli with 0.2% of DMSO (vehicle control) or 0.2% DMSO with KPT-330 at 0.2 mM. Nuclear localization of the HLH-30-GFP reporter and survival was measured.

C. elegans [1] = experiment: Lifespan analysis of C. elegans; type: in vivo; settings: for lifespan of treated animals compared to vehicle-treated controls: C. elegans wild-type; for % Difference in mean lifespan vs vehicle control / Drug treatment Mean Lifespan: N2 wild-type; for Drug treatment Mean Lifespan: 20° C.
Method: Lifespan analysis: Worms were synchronized by bleaching and eggs were grown on OP50 E. coli during development. Day 1 adults were transferred onto corresponding RNAi plates and kept at 20° C. Mantel-Cox log rank statistical analyses were calculated using Stata 13.0.

TFEB = experiment: TFEB-GFP nuclear localization in HeLa cells; type: cell-based, human; settings: TFEB-GFP-expressing HeLa cells, 1 μM, 6 hours
Method: Cell culture: HeLa cells (ATCC) and HeLa cells expressing TFEB-GFP (S. Ferguson lab) were grown in 6-well plates on a coverslip for 24 hours in DMEM High Glucose (Genesee Scientific) containing 2 mM L-Glutamine, 1% Penicillin-Strep and 10% Fetal Bovine Serum (GenClone). For RNAi experiments, both HeLa cell lines were transfected with Silencer Select siRNA against XPO1 (5 nM) or TFEB (10 nM) or negative control siRNA #2 (Thermo Fisher Scientific) with RNAi Max (Thermo Fisher Scientific) and Opti-MEM (Gibco) for 48 hours. Cells were incubated for another 6 hours with DMSO 0.1%, Torin 1 […], KPT-330, KPT-276, KPT-185 or KPT-335 (1 μM) (Selleckchem). For Lysotracker analysis, cells on coverslips were previously grown with vehicle or compounds (including GSK-3β inhibitor VIII or Leptomycin b (10 nM) for 6 hours followed by a one hour incubation with 100 nM of Lysotracker Red DND-99 (Thermo Fisher Scientific) and live cells were imaged. Coverslips were mounted for imaging onto slides and imaged with a Zeiss Axiovert 200M Fluorescent Microscope. Lysotracker signal was quantified by measuring signal intensity over background of individual cells using ImageJ. For imaging TFEB-GFP signal, cells were fixed in methanol. Nuclear localization was quantified by counting cells that had higher GFP intensity in the nucleus compared to the cytoplasm measured using ImageJ.

C. elegans [2] = experiment: Heat stress survival assay (37° C.); type: in vivo; settings: 100 μM
Method: (§1) Proteostasis analyses: Heat shock analyses were performed at 37° C. and scoring survival every hour. Aggregation was visualized by fluorescent microscopy using strains expressing Q35::GFP in muscle (AM140) (Morley et al., 2002, The threshold for polyglutamine-expansion protein aggregation and cellular toxicity is dynamic and influenced by aging in Caenorhabditis elegans. Proc Natl Acad Sci USA 99, 10417-10422) or Q40::YFP in intestine (GF78) (Mohri-Shiomi and Garsin, (2008) Insulin signaling and the heat shock response modulate protein homeostasis in the Caenorhabditis elegans intestine during infection. J Biol Chem 283, 194-201). Aggregate clearance was assayed with a strain (GMC101) (McColl et al., (2012). Utility of an improved model of amyloid-beta (Abeta(1)(−) (4)(2)) toxicity in Caenorhabditis elegans for drug screening for Alzheimer's disease. Mol Neurodegener 7, 57). […]) inducing expression of human Aβ42 at 25° C. Following a 5-day RNAi feeding, paralysis was assayed after 48 hours at 25° C.

mCherry::GFP::LGG-1 = experiment: Autophagy analysis with tandem reporter mCherry::GFP::LGG-1 (autophagosome and autolysosome formation); type: in vivo, C. elegans; settings: 50 or 100 μM, visualized after 48 hours
Method: Autophagy analysis: Worms expressing the tandem reporter GFP-mCherry-LGG-1 (Chang et al., (2017). Spatiotemporal regulation of autophagy during Caenorhabditis elegans aging. eLife 6) were treated from L4/day 1 of adulthood and imaged using an LSM 800 Zeiss Confocal Laser Scanning Microscope as previously described (Chang et al., (2017). Spatiotemporal regulation of autophagy during Caenorhabditis elegans aging. eLife 6). To functionally assess the effect of genetically or pharmacologically inhibiting xpo-1 on the autophagic pathway, autophagic flux (i.e. fusion of autophagosome to lysosome) was measured in C. elegans. Several fluorescent reporters of autophagy proteins (including LGG-1/LC3, SQST-1/P62) have been designed to observe and quantify autophagic flux. […] These animals were used to determine the effect of silencing (RNAi) xpo-1 on autophagy using fluorescent microscopy. The accumulation of unique red punctae represents active autolysosome formation, indicative of activated autophagy.

[3] = tested on: polyQ-containing protein aggregates; experiment: polyQ aggregate formation (Q35::GFP muscle, Q40::YFP intestine); type: in vivo, C. elegans; settings: day 5 animals, 100 μM
Method: as §1

dsodH71Y flies = experiment: Lifespan analysis of ALS model in flies (dsodH71Y); type: in vivo, D. melanogaster; settings: for Drug treatment Mean Lifespan: H71Y Sod-1 (dsod) flies, 25° C.; for % Difference in mean lifespan vs vehicle control: H71Y flies
Method: l Lifespan analysis in Drosophila: Measurement of lifespan (25° C.) in dsodH71Y was performed as previously described in the art (Sahin et al., 2017, Human SOD1 ALS Mutations in a Drosophila Knock-In Model Cause Severe Phenotypes and Reveal Dosage-Sensitive Gain- and Loss-of-Function Components. Genetics 205, 707-723). The software Stata 13.0 was used to perform Mantel-Cox log rank statistical analyses.

SMILES: O=C(/C=C\n1cnc(-c2cc(C(F)(F)F)cc(C(F)(F)F)c2)n1)N1CC(F)(F)C1 [KPT-276]
- nuclear enrichment of HLH-30 (HLH-30; 25 μM): nuclear enrichment of HLH-30
- lifespan of treated animals compared to vehicle-treated controls (C. elegans [1]): lifespan extension
- % Difference in mean lifespan vs vehicle control (C. elegans [1]; 25 μM): 9.4%
- Drug treatment Mean Lifespan (C. elegans [1]; 25 μM): 23.2 days
- nuclear localization of TFEB (TFEB): marked increase in nuclear localization of TFEB

SMILES: O=C(/C=C\n1cnc(-c2cc(C(F)(F)F)cc(C(F)(F)F)c2)n1)NNc1cnccn1 [KPT-330, Selinexor]
- nuclear localization of HLH-30 (HLH-30; Day 1 adults, 25, 50 and 100 μM for 72 hours): displayed nuclear localization of HLH-30
- Nuclear localization of HLH-30::GFP (HLH-30; concentrations below 25 μM): not detected
- nuclear localization of HLH-30 (HLH-30; lower concentration (data not shown)): also led to nuclear localization of HLH-30
- nuclear localization of HLH-30 (fused to GFP) (HLH-30; nematodes grown on plates containing 2 mM): led to nuclear localization of HLH-30
- lifespan of treated animals compared to vehicle-treated controls (C. elegans [1]): significant lifespan extension; also recorded: significant increase in the lifespan
- % Difference in mean lifespan vs vehicle control (C. elegans [1]; 25 μM): 12.4% and 13.2%
- Drug treatment Mean Lifespan (C. elegans [1]; 25 μM): 21.7 days and 24 days
- % Difference in mean lifespan vs vehicle control (C. elegans [1]; 50 μM): 9.8% and 17%
- Drug treatment Mean Lifespan (C. elegans [1]; 50 μM): 21.2 days and 24.8 days
- % Difference in mean lifespan vs vehicle control (C. elegans [1]; 100 μM): 14% and 21.7%
- Drug treatment Mean Lifespan (C. elegans [1]; 100 μM): 22 days and 25.8 days
- resistance to heat (C. elegans [2]; day 1 to day 5 of adulthood): improved resistance to heat
- % Difference in heat stress survival vs vehicle control (C. elegans [2]; N2 wild-type, Day 5 of adulthood): 18.5% and 34.7%
- Heat Stress survival (mean, hours) (C. elegans [2]; N2 wild-type, Day 5 of adulthood after 5 days of treatment): 6.4 h and 6.2 h
- Autophagy in pharynx and hypodermal seam cells (mCherry::GFP::LGG-1): enhanced
- formation of polyQ-containing (Q40::YFP) aggregates [3]: reduction in the formation
- Drug treatment Mean Lifespan (dsodH71Y flies; both sexes, 100 μM): 9.8 days and 13.5 days
- Drug treatment Mean Lifespan (dsodH71Y flies; females, 100 μM): 12 days and 16.9 days
- Drug treatment Mean Lifespan (dsodH71Y flies; males, 100 μM): 6.8 days and 6 days
- % Difference in mean lifespan vs vehicle control (dsodH71Y flies; both sexes, 100 μM): 24.0% and 18.4%
- % Difference in mean lifespan vs vehicle control (dsodH71Y flies; females, 100 μM): 26.3% and 27.1%
- overall survivorship compared to control (dsodH71Y flies; dsodH71Y flies fed 100 μM during adulthood): beneficial impact on the overall survivorship
- lifespan of females (dsodH71Y flies; dsodH71Y flies, 100 μM): extended significantly
- nuclear localization of TFEB (TFEB): marked increase in nuclear localization of TFEB

SMILES: COc1cc(-c2ncn(/C=C\C(=O)OC(C)C)n2)cc(C(F)(F)F)c1 [KPT-185]
- nuclear localization of TFEB (TFEB): marked increase in nuclear localization of TFEB

SMILES: O=C(/C=C\n1cnc(-c2cc(C(F)(F)F)cc(C(F)(F)F)c2)n1)NNc1ccccn1 [KPT-335, Verdinexor]
- nuclear localization of TFEB (TFEB): marked increase in nuclear localization of TFEB
